Data on 2 molecules can be found in US12461078B2, “Compounds for use in system suitability testing of inert LC systems and columns” (priority 2020, dated 2025).

Data set [1] is described as follows: Hydrolytic and storage stability of nucleotide analog. Format: physicochemical.
The conditions of data set [2]: cited from earlier work.

In general, Log P refers to the decadic logarithm of the partition coefficient of the neutral form, usually between octanol and water. On to `Nc1ncnc2c1ncn2[C@@H]1O[C@H](COP(=O)(O)CP(=O)(O)O)[C@@H](O)[C@H]1O` [AMPcP, Adenosine 5′-(α, β-methylene)diphosphate], for which, in data set [1], the “resistance to hydrolysis / storage stability” value is “resistant to hydrolysis and be stable for long-term storage and repeat use”. The “Log P” value in data set [2] was −4.8. Turning to `Nc1ncnc2c1ncn2[C@@H]1O[C@H](COP(=O)(O)OP(=O)(O)OP(=O)(O)O)[C@@H](O)[C@H]1O` [ATP, adenosine-5′-triphosphate], in data set [2], the “Log P” value is reported as −5.5.
